According to PubChem BioAssay (NCI):
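Each compound was tested at five concentrations against cells in 96-well plates for 48 hours. At the TGI there is no net growth.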

Key:
Test in all cases: inhibition of tumour cell growth, NCI panel, 48 h
HCT-15 colon = test system: HCT-15 colon
KM12 colon = test system: KM12 colon
HS 578T breast = test system: HS 578T breast
SK-OV-3 ovarian = test system: SK-OV-3 ovarian
MALME-3M melanoma = test system: MALME-3M melanoma
A549 NSCLC = test system: A549 NSCLC
RPMI-8226 leukemia = test system: RPMI-8226 leukemia
UO-31 renal = test system: UO-31 renal
HCT-116 colon = test system: HCT-116 colon
SF-295 CNS = test system: SF-295 CNS
SN12C renal = test system: SN12C renal
CAKI-1 renal = test system: CAKI-1 renal
OVCAR-4 ovarian = test system: OVCAR-4 ovarian
TK-10 renal = test system: TK-10 renal
OVCAR-3 ovarian = test system: OVCAR-3 ovarian
RXF 393 renal = test system: RXF 393 renal
SF-539 CNS = test system: SF-539 CNS
SF-268 CNS = test system: SF-268 CNS
U251 CNS = test system: U251 CNS
SR leukemia = test system: SR leukemia

Compound | TGI (HCT-15 colon) | TGI (KM12 colon) | TGI (HS 578T breast) | TGI (SK-OV-3 ovarian) | TGI (MALME-3M melanoma) | TGI (A549 NSCLC) | TGI (RPMI-8226 leukemia) | TGI (UO-31 renal) | TGI (HCT-116 colon) | TGI (SF-295 CNS) | TGI (SN12C renal) | TGI (CAKI-1 renal) | TGI (OVCAR-4 ovarian) | TGI (TK-10 renal) | TGI (OVCAR-3 ovarian) | TGI (RXF 393 renal) | TGI (SF-539 CNS) | TGI (SF-268 CNS) | TGI (U251 CNS) | TGI (SR leukemia)
CCC(C)OC(=O)/C(Br)=C1/OC(=O)c2ccccc2-c2ccccc21 (configuration not stated) | 38.5 µM | 61 µM | > 100 µM | > 100 µM | 80.6 µM | > 100 µM | 87.9 µM | 73 µM | 36.6 µM | > 100 µM | > 100 µM | > 100 µM | > 100 µM | 43.2 µM | > 100 µM | 21.5 µM | 52.2 µM | > 100 µM | – | –
Cc1ccccc1N1C(=O)C2C=CC(n3[nH]c(=O)n(Cc4ccccc4)c3=O)CC2C1=O (configuration not stated) | > 100 µM | > 100 µM | – | > 100 µM | > 100 µM | > 100 µM | > 100 µM | > 100 µM | > 100 µM | > 100 µM | > 100 µM | > 100 µM | – | > 100 µM | > 100 µM | > 100 µM | > 100 µM | > 100 µM | > 100 µM | –
CSc1nc(Nc2cccc(C(F)(F)F)c2)c2c(N)nn(C)c2n1 | > 100 µM | > 100 µM | > 100 µM | > 100 µM | > 100 µM | > 100 µM | > 100 µM | > 100 µM | > 100 µM | > 100 µM | > 100 µM | > 100 µM | > 100 µM | > 100 µM | > 100 µM | > 100 µM | – | > 100 µM | > 100 µM | –
CN=C(N=Nc1c(O)[nH]c2ccccc12)SCC(=O)c1ccc(Br)cc1 | > 89.3 µM | > 39.5 µM | > 40 µM | 28.4 µM | > 47.1 µM | 20 µM | > 100 µM | 3.79 µM | 19.7 µM | 49.6 µM | > 48.7 µM | > 65.5 µM | > 100 µM | 37.7 µM | 28.2 µM | 19.2 µM | 23.8 µM | > 48.7 µM | 16.6 µM | –
CC1CCC(=O)C(C(=O)CC2CC(=O)N(C)C(=O)C2)C1 (configuration not stated) | > 100 µM | > 100 µM | > 100 µM | > 100 µM | > 100 µM | > 100 µM | > 100 µM | > 100 µM | > 100 µM | > 100 µM | > 100 µM | > 100 µM | > 100 µM | > 100 µM | > 100 µM | > 100 µM | > 100 µM | > 100 µM | > 100 µM | –
COc1ccc(S(=O)(=O)c2nnc(S(=O)(=O)Cc3ccccc3)s2)cc1 | 50.5 µM | > 100 µM | 43 µM | 44.6 µM | – | 49.3 µM | > 100 µM | 43.4 µM | 38.1 µM | 90.1 µM | 52.9 µM | 39.3 µM | > 100 µM | 39.6 µM | > 100 µM | 31.2 µM | 50.1 µM | > 100 µM | 52.3 µM | –
COc1ccc(-[n+]2nc(S(=O)(=O)O)c(/C=C/c3ccc(N(C)C)cc3)cc2C#N)cc1 | > 100 µM | > 100 µM | > 100 µM | > 100 µM | – | > 100 µM | > 100 µM | > 100 µM | > 100 µM | > 100 µM | > 100 µM | > 100 µM | > 100 µM | > 100 µM | > 100 µM | – | > 100 µM | > 100 µM | > 100 µM | –
Cn1c(=O)c2c(nc(Cc3ccccc3)n2CC(=O)O)n(C)c1=O | > 100 µM | > 100 µM | > 100 µM | – | > 100 µM | > 100 µM | – | > 100 µM | > 100 µM | > 100 µM | > 100 µM | > 100 µM | > 100 µM | > 100 µM | > 100 µM | > 100 µM | – | > 100 µM | > 100 µM | –
C[C@H](CCC(=O)O)[C@H]1CC[C@H]2[C@@H]3CC[C@@H]4C[C@H](O)CC[C@]4(C)[C@H]3C[C@H](O)[C@]12C | > 100 µM | > 100 µM | > 100 µM | 78.1 µM | > 100 µM | > 100 µM | 57.6 µM | > 100 µM | > 100 µM | 38.9 µM | > 100 µM | > 100 µM | > 100 µM | > 100 µM | 52.1 µM | > 100 µM | 99 µM | > 100 µM | > 100 µM | –
Cc1ccc(-n2c(N)c(C#N)c3[nH]nc(N)c3c2=O)cc1 | > 100 µM | > 100 µM | > 100 µM | > 100 µM | – | – | > 100 µM | > 100 µM | > 100 µM | > 100 µM | – | > 100 µM | > 100 µM | > 100 µM | – | > 100 µM | > 100 µM | > 100 µM | > 100 µM | –
N#Cc1c2ccccc2cn1-c1ccc(F)cc1 | – | 97.4 µM | – | – | 86.1 µM | > 100 µM | 61.2 µM | 39.6 µM | 62.3 µM | > 100 µM | – | > 100 µM | > 100 µM | > 100 µM | 67.9 µM | – | > 100 µM | 99.5 µM | > 100 µM | –
N#Cc1c(N)n(-c2cccc(C(=O)O)c2)c(=O)c2cc([N+](=O)[O-])ccc12 | > 100 µM | > 100 µM | > 100 µM | – | – | > 100 µM | > 100 µM | > 100 µM | > 100 µM | – | > 100 µM | > 100 µM | > 100 µM | > 100 µM | – | – | – | > 100 µM | > 100 µM | –
O=c1[nH]nc(Cc2ccccc2)n1/N=C/c1ccccc1O | > 100 µM | > 100 µM | > 100 µM | > 100 µM | > 100 µM | > 100 µM | > 100 µM | > 100 µM | > 100 µM | > 100 µM | > 100 µM | > 100 µM | > 100 µM | > 100 µM | > 100 µM | 53.5 µM | > 100 µM | > 100 µM | > 100 µM | –
CC1CCC(C(C)C)C(OC(=O)NCn2cc(-c3ccccc3)nn2)C1 (configuration not stated) | > 100 µM | > 100 µM | – | – | > 100 µM | > 100 µM | > 100 µM | – | > 100 µM | > 100 µM | > 100 µM | > 100 µM | > 100 µM | > 100 µM | – | – | > 100 µM | > 100 µM | > 100 µM | > 100 µM
CCCCNC(=S)Nc1nc(C(=O)NNC(=S)Nc2ccccc2)cs1 | > 100 µM | > 100 µM | – | > 100 µM | – | > 100 µM | > 100 µM | > 100 µM | > 100 µM | > 100 µM | > 100 µM | > 100 µM | > 100 µM | > 100 µM | > 100 µM | – | > 100 µM | > 100 µM | 48.3 µM | –
COC(=O)c1cc2ccc(N)nc2[nH]c1=O | > 100 µM | > 100 µM | – | > 100 µM | > 100 µM | > 100 µM | > 100 µM | > 100 µM | > 100 µM | > 100 µM | > 100 µM | > 100 µM | > 100 µM | > 100 µM | > 100 µM | > 100 µM | > 100 µM | > 100 µM | > 100 µM | –
COc1ccc(C(OCC2OC(n3cc(C)c(=O)[nH]c3=O)CC2n2cc(Cn3cc(Cl)c(=O)[nH]c3=O)nn2)(c2ccccc2)c2ccccc2)cc1 (configuration not stated) | > 100 µM | > 100 µM | > 100 µM | > 100 µM | > 100 µM | > 100 µM | > 100 µM | > 100 µM | > 100 µM | > 100 µM | > 100 µM | > 100 µM | > 100 µM | > 100 µM | > 100 µM | > 100 µM | > 100 µM | > 100 µM | > 100 µM | –
S=C(S)NCNC(=S)S.[Zn+2] | > 100 µM | > 100 µM | > 100 µM | > 100 µM | > 100 µM | > 100 µM | > 100 µM | > 100 µM | > 100 µM | > 100 µM | > 100 µM | > 100 µM | > 100 µM | > 100 µM | > 100 µM | > 100 µM | > 100 µM | > 100 µM | > 100 µM | –
CCCCCCOC(=O)/C=C/[C@]1(CO)C/C(=C/CC(C(C)C)C(C)C)C(=O)O1 | 28.6 µM | 33.3 µM | 22.1 µM | 37.7 µM | 25.7 µM | 18.4 µM | 56.1 µM | 17.8 µM | 25.9 µM | 29.8 µM | – | 23.7 µM | 36 µM | 14 µM | 29.8 µM | 36.9 µM | – | 23.5 µM | – | –
Cc1cc2oc(=N)c(C#N)c(C)c2cc1C | > 100 µM | > 100 µM | > 100 µM | > 100 µM | > 100 µM | > 100 µM | > 100 µM | > 100 µM | > 100 µM | > 100 µM | > 100 µM | > 100 µM | > 100 µM | > 100 µM | > 100 µM | 87.3 µM | > 100 µM | > 100 µM | > 100 µM | –
O=C(Nc1nc(C23CC4CC(CC(C4)C2)C3)cs1)c1cc2ccc(O)cc2oc1=O | 47.6 µM | 29.9 µM | 37.8 µM | – | 34.5 µM | 38.3 µM | 32.6 µM | 31.2 µM | 25.6 µM | 48.4 µM | 30.4 µM | > 100 µM | 44 µM | > 100 µM | 60.5 µM | 51.2 µM | 86.6 µM | 39.9 µM | 28.7 µM | –
